Eight compounds from patent publication US20210269411A1, “COMFREYNS, ARYLNAPHTHALENE LIGNANS THAT INHIBIT PRO-INFLAMMATORY GENE EXPRESSION, AND PHARMACEUTIC COMPOSITION COMPRISING THEM” (The Procter & Gamble Company, priority 2020, published 2021) can be followed below.

Values joined by “and” are separate entries in the source; they are usually repeats but may differ in a detail not shown here. Equal entries are not always repeated.

The test system of this assay is IL-1β induced E-selectin expression. Description: Inhibition of IL-1β induced E-selectin (SELE) mRNA expression in primary HUVEC, real time PCR. In kind it is cell-based, human. The settings on record: for Inhibitory activity against E-selectin expression (in words): IL-1β stimulated HUVEC, 5 ng/mL IL-1β for 90 min; for EC [μM] (effective concentration) / Max. Inhibition (%): HUVEC pre-incubated 30 min with compound, then 5 ng/mL IL-1β for 90 min; for EC [μM] (effective concentration): SELE mRNA normalized to GAPDH, at least three independent experiments; for Max. Inhibition (%): SELE mRNA by qPCR, at the effective concentration. As for the experimental part: J. Seigner et al. (Frontiers in Pharmacology 10.3389/fphar.2019.00289) reported recently that interleukin-1β (IL-1β) induced E-selectin mRNA levels were inhibited by a comfrey extract by approximately 70% at the starting concentration of 20 μg/ml. E-selectin is a NF-κB-dependent target gene and IL-1β is a well-described pro-inflammatory mediator that exerts an important role in the regulation of immune and inflammatory responses, in particular those involving sterile insults such as trauma and blunt injuries. […] Thus, the anti-inflammatory activity of individual compounds 1, 5, 12 and 14, was tested using IL-1-stimulated HUVEC cells and analyzed by real time PCR determining the fold change in mRNA expression of E-selectin. These were compared to the inhibitory activity of the new arylnaphthalene lignan comfreyn A (15) and globoidnan B (8), malaxinic acid (9) and caffeic acid ethyl ester (16), the latter three identified first time in S. officinale as disclosed herein.
Therefore, primary HUVEC cells were isolated from umbilical cords as described by M. Hoeth et al., Guidance Molecules in Human Endothelial Cells, Plos One 7, 2012 and maintained in M199 medium (Lonza) supplemented with 20% FCS (Sigma), 2 mM L-glutamine (Sigma), penicillin (100 units/mL), streptomycin ([…]), 5 units/mL heparin, and […] ECGS (Promocell), and were used up to passage 5. HUVEC cell were pre-incubated with various concentration of purified compounds (1, 5, 8, 9, 12, 14, 15 and 16) for 30 minutes following stimulation with 5 ng/mL IL-1β (R&D Systems) for 90 min. Cells were then analyzed for the change in mRNA expression of E-Selectin (SELE). Therefore, total RNA was isolated using the PeqGold Total RNA Isolation Kit (VWR International) according to the manufacturer's instructions. 1 μg RNA was reverse transcribed using random hexamers (Fermentas) and murine leukemia virus reverse transcriptase (Thermo Scientific Fisher). Primers were designed using the software “Primer3”. Following primer sequences were used for qPCR: glyceraldehyde 3-phosphate dehydrogenase (GAPDH) forward, 5′-AGAAGGCTGGGGCTCATTT-3′ and reverse, 5′-[…]-3′; E-Selectin (SELE) forward, 5′-CCTGTGAAGCTCCCACTGA-3 and reverse 5′-[…]-3′. Real-time PCR was done with the SsoAdvanced Universal SYBR Green Supermix (BioRad) using the StepOnePlus instrument (Applied Biosystems), and relative mRNA expression normalized to GAPDH. Fold changes in mRNA expression were calculated according to the 2-ΔΔCT method.
On the technique in general: Real-time PCR tracks product formation cycle by cycle.

Consider `NC(=O)NC1NC(=O)NC1=O` (stereo not shown) [Compound 1, allantoin], for which the “Inhibitory activity against E-selectin expression (in words)” value was “do not show any inhibitor activity”.
In the case of `O=Cc1ccc(O)c(O)c1` [Compound 5, protocatechuic aldehyde], the “EC [μM] (effective concentration)” value is 120 µM.
With `O=C(O[C@H](Cc1ccc(O)c(O)c1)C(=O)O)C1=Cc2cc(O)c(O)cc2[C@H](c2ccc(O)c(O)c2)[C@H]1C(=O)O` [Compound 8, globoidnan B], the “Inhibitory activity against E-selectin expression (in words)” value is “did not show any inhibitory activity”.
Consider `CC(C)=CCc1cc(C(=O)O)ccc1O[C@@H]1O[C@H](CO)[C@@H](O)C(O)[C@H]1O` (stereo partly shown) [Compound 9, malaxinic acid], for which the “EC [μM] (effective concentration)” value amounted to 108 µM.
As to `O=C(/C=C/c1ccc(O)c(O)c1)O[C@H](Cc1ccc(O)c(O)c1)C(=O)O` [Compound 12, rosmarinic acid], the “Inhibitory activity against E-selectin expression (in words)” value was “do not show any inhibitor activity”.
On to `O=C(O[C@H](Cc1ccc(O)c(O)c1)C(=O)O)c1cc(-c2ccc(O)c(O)c2)c2cc(O)c(O)cc2c1` [Compound 14, globoidnan A], for which the “Max. Inhibition (%)” value came to 35% and the “EC [μM] (effective concentration)” value stood at 40 µM.
With `CCOC(=O)c1cc2cc(O)c(O)cc2c2c1c(=O)oc1cc(O)c(O)cc12` [Compound 15, comfreyn A], the “Max. Inhibition (%)” value was 50% and 52%; the “EC [μM] (effective concentration)” value was 50 µM. Where the note is “listed as Comfreyn A”, the “Inhibitory activity against E-selectin expression (in words)” value is reported as “inhibition of E-selectin expression”. Further, where the note is “listed as comfreyn A”, the “Inhibitory activity against E-selectin expression (in words)” value was “inhibit the expression of E-selecting mRNA”.
As to `CCOC(=O)/C=C/c1ccc(O)c(O)c1` [Compound 16, caffeic acid ethyl ester], the “Max. Inhibition (%)” value worked out at 70% and the “EC [μM] (effective concentration)” value was determined as 64 µM.
